In ChEMBL document CHEMBL5331085 (Eur J Med Chem, 2023):
≈ marks a conversion by molar mass, not a printed value. Calls of active or inactive are those of the source. No cut-off for these calls is given here. Positions of bridges follow the written chain, without caps; N, C: chain ends. Non-standard residues stand in square brackets, D forms with d. Residues, ends and D or L forms follow the SMILES beside them. *: point of attachment. Ileψ(thiazoline)Cys = CC[C@H](C)[C@H](N)C1=N[C@H](C(=O)*)CS1; dOrn = NCCC[C@@H](N)C(=O)O

Legend:
Staphylococcus aureus [1] = assay: Antimicrobial activity against Staphylococcus aureus ATCC 29213 incubated for 16 to 20 hrs by CLSI based broth dilution method; type: functional; details: time 16-20 hrs
Enterococcus faecium = assay: Antimicrobial activity against Enterococcus faecium ATCC 29212 incubated for 16 to 20 hrs by CLSI based broth dilution method; type: functional
Escherichia coli = assay: Antimicrobial activity against Escherichia coli ATCC 25922 incubated for 16 to 20 hrs by CLSI based broth dilution method; type: functional; details: time 16-20 hrs
[2] = system: Stenotrophomonas maltophilia; assay: Antimicrobial activity against Stenotrophomonas maltophilia ATCC 17808 incubated for 16 to 20 hrs by CLSI based broth dilution method; type: functional; details: time 16-20 hrs
[3] = (§1) Hemolytic activity in sheep erythrocytes incubated for 1 hr by absorbance based analysis; type: toxicity, cell-based, Ovis aries, Erythrocyte; details: sheep erythrocytes
Erythrocyte = assay: as §1; type: toxicity, cell-based, Ovis aries; details: erythrocyte, 1 h
Staphylococcus aureus [4] = assay: Induction of drug resistance in Staphylococcus aureus ATCC 29213 at 0.1 times MIC measured after 20 passages; type: functional
Staphylococcus aureus [5] = assay: Antimicrobial activity against methicillin-resistant Staphylococcus aureus incubated for 16 to 20 hrs by CLSI based broth dilution method; type: functional; details: time 16-20 hrs
Staphylococcus aureus [6] = assay: Antimicrobial activity against Staphylococcus aureus; type: functional
Staphylococcus aureus [7] = assay: Antibacterial activity against Staphylococcus aureus ATCC 29213 assessed as inhibition of bacterial growth at 0.5 ug/ml incubated for 16 to 18 hrs in presence of genomic DNA at 0.125 to 4 ug/ml by microplate reader analysis; type: functional, organism-based; details: dose 0.5 µg/ml, time 16-18 hrs
[8] = Staphylococcus aureus, ATCC 29213, read-out: MIC
[9] = Enterococcus faecium, ATCC 29212, time 16-20 hrs, read-out: MIC
[10] = Escherichia coli, ATCC 25922, read-out: MIC
[11] = Stenotrophomonas maltophilia, ATCC 17808, read-out: MIC

| Compound | MIC (Staphylococcus aureus [1]; [8]) | MIC (Enterococcus faecium; [9]) | MIC (Escherichia coli; [10]) | HC50 at 1 h [3] | further results |
| --- | --- | --- | --- | --- | --- |
| CCCCCCCC[N+](C)(C)CCCOc1ccc2ccccc2c1-c1c(OCCC[N+](C)(C)CCCCCCCC)ccc2ccccc12.[Br-].[Br-] | 2 µg/mL | 2 µg/mL | 2 µg/mL | 28 µg/mL | MIC (Staphylococcus aureus [1]): 2 µg/mL; MIC (Enterococcus faecium; time 16-20 hrs): 2 µg/mL; MIC (Escherichia coli): 2 µg/mL; MIC [2, 11]: 2 µg/mL; MIC [2]: 2 µg/mL; HC50 (Erythrocyte): 20 µg/mL |
| COc1cccc(OC)c1C(=O)N[C@@H]1C(=O)N2[C@@H]1SC(C)(C)[C@@H]2C(=O)O | – | – | – | – | Activity (Staphylococcus aureus [4]): Active |
| C[C@H]1c2cccc(O)c2C(=O)C2=C(O)[C@]3(O)C(=O)C(C(N)=O)=C(O)[C@@H](N(C)C)[C@@H]3[C@@H](O)[C@@H]21.O [DOXYCYCLINE] | – | – | – | – | MIC90 (Staphylococcus aureus [5]): 8 µg/mL |
| CCCCCCCCCC[N+](C)(C)CCCOc1ccccc1-c1ccccc1OCCC[N+](C)(C)CCCCCCCCCC.[Br-].[Br-] | 2 µg/mL | 1 µg/mL | 4 µg/mL | 10 µg/mL | MIC [2, 11]: 4 µg/mL |
| CC[C@H]1OC(=O)[C@H](C)[C@@H](O[C@H]2C[C@@](C)(OC)[C@@H](O)[C@H](C)O2)[C@H](C)[C@@H](O[C@@H]2O[C@H](C)C[C@H](N(C)C)[C@H]2O)[C@](C)(O)C[C@@H](C)C(=O)[C@H](C)[C@@H](O)[C@]1(C)O [ERYTHROMYCIN] | – | – | – | – | MIC90 (Staphylococcus aureus [5]): 128 µg/mL (≈ 174 µM) |
| CCCCCCN(CCCOc1ccccc1-c1ccccc1OCCCN(CCCCCC)C(=O)[C@@H](N)CCCCN)C(=O)[C@@H](N)CCCCN.Cl.Cl.Cl.Cl | – | – | – | – | MIC (Staphylococcus aureus [6]): 0.5 µg/mL |
| CCCCCCN(CCCOc1ccc(-c2ccc(OCCCN(CCCCCC)C(=O)[C@@H](N)CCCCN)cc2)cc1)C(=O)[C@@H](N)CCCCN.Cl.Cl.Cl.Cl | – | – | – | – | MIC (Staphylococcus aureus [6]): 1 µg/mL |
| CCCCCCCCCC[N+](C)(C)CCCOc1cccc(-c2cccc(OCCC[N+](C)(C)CCCCCCCCCC)c2)c1.[Br-].[Br-] | 1 µg/mL | 0.5 µg/mL | 2 µg/mL | 19 µg/mL | MIC [2, 11]: 2 µg/mL |
| C[C@@H](O)[C@H]1C(=O)N2C(C(=O)O)=C(S[C@@H]3CN[C@H](C(=O)N(C)C)C3)[C@H](C)[C@H]12 [MEROPENEM] | – | – | 0.063 µg/mL (≈ 0.164 µM) | > 1280 µg/mL | – |
| CC[C@H](C)[C@H](N)C1=N[C@H](C(=O)N[C@@H](CC(C)C)C(=O)N[C@H](CCC(=O)O)C(=O)N[C@H](C(=O)N[C@H]2CCCCNC(=O)[C@H](CC(N)=O)NC(=O)[C@@H](CC(=O)O)NC(=O)[C@H](Cc3cnc[nH]3)NC(=O)[C@@H](Cc3ccccc3)NC(=O)[C@H]([C@@H](C)CC)NC(=O)[C@@H](CCCN)NC2=O)[C@@H](C)CC)CS1 [BACITRACIN] ({Ileψ(thiazoline)Cys}-L[dE]IK[dOrn]I[dF]H[dD]N; lactam 4-C) | 16 µg/mL (≈ 11.2 µM) | 16 µg/mL (≈ 11.2 µM) | > 128 µg/mL | – | – |
| C[C@H]1COc2c(N3CCN(C)CC3)c(F)cc3c(=O)c(C(=O)O)cn1c23 | – | – | – | – | Activity (Staphylococcus aureus [4]): Active |
| CC1(C)S[C@@H]2[C@H](NC(=O)[C@H](N)c3ccccc3)C(=O)N2[C@H]1C(=O)O | – | – | – | – | Activity (Staphylococcus aureus [4]): Active |
| CCCCCC[N+](C)(C)CCCOc1ccc(-c2ccc(OCCC[N+](C)(C)CCCCCC)cc2)cc1.[Br-].[Br-] | 2 µg/mL | 1 µg/mL | 2 µg/mL | 487 µg/mL | MIC [2, 11]: 1 µg/mL |
| COLISTIN | – | – | – | – | Activity (Staphylococcus aureus [7]): Active |
